From patent US4820828A, “Cinnamohydroxamic acids” (Ortho Pharmaceutical Corporation, priority 1987, dated 1989) come the findings set out here.

Assay [1] has as its system Arachidonate Induced Bronchospasm. Nature of the assay: Pulmonary mechanics assay: inhibition of arachidonate induced bronchospasm in anesthetized guinea pigs. It counts as in vivo, guinea pig (male Hartley). The conditions noted are these: Cavia porcellus, guinea pig, % inhibition of control; for inhibition in vivo at 50 mg/kg: dose 50 mg/kg ID; for inhibition in vivo at 15 mg/kg: dose 15 mg/kg IV; for inhibition in vivo at 100 mg/kg: dose 100 mg/kg ID; for inhibition in vivo at 10 mg/kg: dose 10 mg/kg ID. The protocol:
The bronchodilating activity of the compounds was tested in a pulmonary mechanics assay. Basically, male Hartley guinea pigs (~400-500 g) were anesthetized with urethane (2 g/kg, i.p.) and placed in a whole body plethysmograph. Cannulations of a jugular vein and carotid artery were performed for compound administration and monitoring blood presure, respectively. The trachea was cannulated for respiration at a constant volume via a miniature starling pump. A Validyne differential pressure transducer (±20 cm H2 O) sensed transpleural pressure via a 15 gauge needle inserted into the pleural cavity and a sidearm from the tracheal cannula. Tidal volume was sensed by another Validyne differential pressure transducer (±2 cm H2 O) from pressure changes inside the plethysmograph. An on-line Buxco pulmonary mechanics computer calculated air flow, dynamic lung compliance and lung resistance. The values were recorded on a print-out.
The guinea pigs were pretreated with succinyl choline (1.2 mg/kg, i.v.) to arrest spontaneous respiration. A control challenge of arachidonic acid (0.5-1.0 mg/kg, i.v.) was administered, and the animals were then dosed with the test compound by various routes. At least 10 minutes were allowed to expire between arachidonic acid challenges. A second challenge was given and compared to the control response. This comparison was indicative of cyclooxygenase inhibition. Indomethacin (10 mg/kg, i.v.) was administered immediately after the second challenge. A third challenge of a higher dose of arachidonic acid (5-10 mg/kg, i.v.) was given. This response was induced by SRS-A and compared to the responses elicited by a separate control group of animals. Activity was indicative of lipoxygenase inhibition. Propranolol (0.005 mg/kg, i.v.) may be given prior to the third challenge to enhance the response to SRS-A.
Bronchoconstriction induced by arachidonic acid with or without indomethacin was expressed as maximum percent change in dynamic lung compliance (Cdyn) and maximum percent increase in lung resistance (RL). Each guinea pig served as its own control for cyclooxygenase evaluation, while a treated group was compared to a control group for lipoxygenase evaluation. The results are shown in Table II and are expressed as the percent inhibition of control.

Another assay addresses T1, 5-lipoxygenase (Rattus norvegicus, UniProt P12527).
T1 construct: The cell-free homogenate was prepared by sonication of the cells followed by centrifugation at 40,000 xg; endogenous in cells; host or cells: RBL-1 (rat basophilic leukemia) cells, 40,000 xg supernatant of the sonicated homogenate
T1 sequence (P12527 1-673): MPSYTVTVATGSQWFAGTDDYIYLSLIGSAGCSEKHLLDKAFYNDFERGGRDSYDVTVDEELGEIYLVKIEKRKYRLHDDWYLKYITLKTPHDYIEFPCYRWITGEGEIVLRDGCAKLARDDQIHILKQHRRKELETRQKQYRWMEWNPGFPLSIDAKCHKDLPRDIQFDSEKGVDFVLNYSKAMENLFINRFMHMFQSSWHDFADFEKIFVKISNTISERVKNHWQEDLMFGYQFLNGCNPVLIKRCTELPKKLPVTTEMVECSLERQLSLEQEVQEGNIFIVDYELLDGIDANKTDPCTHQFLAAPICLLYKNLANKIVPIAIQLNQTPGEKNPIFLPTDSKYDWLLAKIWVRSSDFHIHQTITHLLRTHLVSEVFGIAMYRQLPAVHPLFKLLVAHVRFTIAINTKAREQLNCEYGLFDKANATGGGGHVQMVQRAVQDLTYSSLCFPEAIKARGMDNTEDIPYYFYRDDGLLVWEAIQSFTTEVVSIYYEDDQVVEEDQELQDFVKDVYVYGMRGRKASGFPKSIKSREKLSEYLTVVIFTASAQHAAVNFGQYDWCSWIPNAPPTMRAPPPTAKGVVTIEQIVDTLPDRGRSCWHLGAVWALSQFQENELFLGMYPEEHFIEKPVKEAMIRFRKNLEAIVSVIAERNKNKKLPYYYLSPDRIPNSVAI
Nature of the assay: Inhibition of 5-lipoxygenase in a cell-free homogenate of RBL-1 cells (production of lipoxygenase products from 14C-arachidonic acid). The conditions noted are these: rat RBL-1 40,000 xg supernatant; for pIC50: 50% inhibition of lipoxygenase product generation. It counts as biochemical. The protocol:
The inhibition of 5-lipoxygenase was tested in a cell-free homogenate by the procedure of Jakschik, B. et al., Biochem.Biophys.Res.Comm. 95, 103 (1980). Basically, rat basophilic leukemia cells (RBL-1 cells) were maintained in culture in a suitable medium, and were collected by centrifugation prior to assay. The cell-free homogenate was prepared by sonication of the cells followed by centrifugation at 40,000 xg. The CaCl2 dependent production of lipoxygenase products from ^14 C-arachidonic acid in the 40,000 xg supernatant was monitored in the presence of buffer (or other vehicle) or drug. Products were isolated by acidification and extraction, followed by thin layer chromatography. Radioactive areas corresponding to authentic lipoxygenase products were quantitated by liquid scintillation counting. Data was reported as the IC50, the concentration causing 50% inhibition of the generation of lipoxygenase products. The results are shown in Table II as the percent inhibition at 3 μM or the amount of compound necessary to cause 50% inhibition.

[2] abbreviates: iv, with indomethacin (10 mg/kg, i.v.), read-out: Bronchodilating Activity, % Inhibition of Arachidonate Induced Bronchospasm, with Indomethacin.
The mark [3] stands for this setting: with indomethacin (10 mg/kg, i.v.), read-out: Bronchodilating Activity, % Inhibition of Arachidonate Induced Bronchospasm, with Indomethacin.
[4] abbreviates: without indomethacin, read-out: Bronchodilating Activity, % Inhibition of Arachidonate Induced Bronchospasm, without Indomethacin.

pIC50: −log10 of the molar value. Where two headings read alike, the source gives them in different places.

The inhibition is the relative decrease from the control value, in per cent. A lower inhibition goes with a response near the control. `COc1cccc(/C=C/C(=O)N(C)O)c1` [Example 24, 3-Methoxy-N--methylcinnamohydroxamic acid]: the inhibition in vivo at 50 mg/kg in assay [1] (setting [2]) was determined as 49%; in assay [1] (setting [4]), 0%. In addition, the inhibition in vivo at 15 mg/kg is 66% in assay [1] (setting [3]) and 28% in assay [1] (setting [4]). On 5-lipoxygenase, the inhibition at 3 µM stood at 54%.
The pIC50 is the negative decadic logarithm of the IC50, by convention in mol/L. As for `Cc1ccc(/C=C/C(=O)N(C)O)cc1` [Example 7, N,4-Dimethylcinnamohydroxamic acid], the inhibition in vivo at 100 mg/kg in assay [1] (setting [2]) amounted to 0%; in assay [1] (setting [4]), 59%. The inhibition in vivo at 15 mg/kg is 89% in assay [1] (setting [3]) and 96% in assay [1] (setting [4]). Moreover, the pIC50 on 5-lipoxygenase is 6.26.
With `COc1ccccc1/C=C\C(=O)N(C)O` [Example 9, Cis-2-methoxy-N--methylcinnamohydroxamic acid], the inhibition in vivo at 15 mg/kg in assay [1] (setting [3]) was determined as 36%; in assay [1] (setting [4]), 29%. At 5-lipoxygenase, the inhibition at 3 µM is 59%.
For the compound `CN(O)C(=O)/C=C/c1ccc(Cl)c(Cl)c1` [Example 16, 3,4-Dichloro-N--methylcinnamohydroxamic acid], the inhibition in vivo at 15 mg/kg was determined as 86% in assay [1] (setting [3]) and 62% in assay [1] (setting [4]). The compound further displayed an inhibition at 3 µM at 5-lipoxygenase of 87%.
As to `COc1ccccc1/C=C/C(=O)N(C)O` [Example 8, 2-Methoxy-N--methylcinnamohydroxamic acid], the inhibition in vivo at 50 mg/kg is 58% in assay [1] (setting [2]) and -76% in assay [1] (setting [4]). For the same compound, the inhibition in vivo at 15 mg/kg in assay [1] (setting [3]) was 73%; in assay [1] (setting [4]), 94%. The compound also gave an inhibition at 3 µM at 5-lipoxygenase of 66%.
For the compound `COc1ccc(/C=C/C(=O)NO)cc1OC` [Example 6, 3,4-Dimethoxycinnamohydroxamic acid], the results for the inhibition in vivo at 10 mg/kg in assay [1] (setting [2]) and in assay [1] (setting [4]) were 61% and 77%, respectively. The inhibition at 3 µM against 5-lipoxygenase was found to be 17%.
As for `CN(O)C(=O)/C=C/c1ccccc1` [Example 17, N--Methylcinnamohydroxamic acid], the figures for the inhibition in vivo at 50 mg/kg in assay [1] (setting [2]) and in assay [1] (setting [4]) were 0% and -35%, respectively. Besides, the inhibition at 3 µM at 5-lipoxygenase worked out at 50%.
Consider `COc1ccc(/C=C/C(=O)N(C)O)cc1` [Example 25, 4-Methoxy-N--methylcinnamohydroxamic acid], for which the inhibition in vivo at 15 mg/kg in assay [1] (setting [3]) was 29%; in assay [1] (setting [4]) it was 0%. The compound further had a pIC50 on 5-lipoxygenase of 5.89.
For `COc1ccc(OC)c(/C=C/C(=O)N(C)O)c1` [Example 2, 2,5-Dimethoxy-N-methylcinnamohydroxamic acid], the inhibition in vivo at 15 mg/kg in assay [1] (setting [3]) is 49%; in assay [1] (setting [4]) it was 65%. On 5-lipoxygenase, this compound returned an inhibition at 3 µM of 53%.
